Assay [1] concerns L1210. Put plainly: In vitro inhibitory concentration against L1210 leukemia cell line for antiproliferative activity. Type of assay: functional, cell-based. The following applies: Mus musculus.
For assay [2], the system named is L1210. Put plainly: Effect in the G2/M phase of L1210 leukemia cell with a significant percentage of cells having 8N DNA content at 5 uM. Type of assay: functional, Mus musculus.
Assay [3] relates to L1210. The assay can be described thus: Effect in the G2/M phase of L1210 leukemia cell with a significant percentage of cells having 8N DNA content at 0.5 uM. Type of assay: functional, Mus musculus.
The subject of assay [4] is L1210. Put plainly: Effect in the G1 phase of L1210 leukemia cell at 50 uM. Type of assay: functional, Mus musculus.
In assay [5] the test system is KB. The assay can be described thus: Tested for antiproliferative activity against KB-A1 tumoral cell line. Type of assay: functional, cell-based. The conditions noted are these: Homo sapiens.
Assay [6] deals with NCI-H69. Put plainly: Tested for antiproliferative activity against H-69 tumoral cell line. Type of assay: functional, cell-based. The following applies: Homo sapiens.
For assay [7], the system named is B16. Put plainly: Tested for antiproliferative activity against B16 tumoral cell line. Type of assay: functional, cell-based. The conditions noted are these: Mus musculus.
The test system of assay [8] is KB 3-1. The assay can be described thus: Tested for antiproliferative activity against KB 3-1 tumoral cell line. Type of assay: functional, cell-based. The following applies: Homo sapiens.
Assay [9] has as its system DU-145. The assay can be described thus: Tested for antiproliferative activity against DU145 tumoral cell line. Type of assay: functional, cell-based. The following applies: Homo sapiens.
Assay [10] concerns P388/VCR-20. Put plainly: Tested for antiproliferative activity against VCR-20 tumoral cell line. The conditions noted are these: Mus musculus. Type of assay: functional, cell-based.
For assay [11], the system named is A2780. The assay can be described thus: Tested for antiproliferative activity against A-2780 tumoral cell line. The following applies: Homo sapiens. Type of assay: functional, cell-based.
Assay [12] in a line: Concentration required to alter the assembly reaction of microtubules without any depolymerization effect. Type of assay: functional.
The test system of assay [13] is OVCAR-3. Put plainly: Tested for antiproliferative activity against Ovcar-3 tumoral cell line. Type of assay: functional, cell-based. The following applies: Homo sapiens.
Assay [14] has as its system P388. Put plainly: Tested for antiproliferative activity against P388 tumoral cell line. Type of assay: functional, cell-based. The conditions noted are these: Mus musculus.
Assay [15] relates to L1210. The assay can be described thus: Tested for antiproliferative activity against L1210 tumoral cell line. Type of assay: functional, cell-based. The conditions noted are these: Mus musculus.
Assay [16] has as its system SF-295. Put plainly: Tested for cytostatic activity against Central nervous system SF-295 cell line of NCI 60 tumor cell line panel. Type of assay: functional. The conditions noted are these: Homo sapiens.
Assay [17] deals with DU-145. The assay can be described thus: Tested for cytostatic activity against Prostate DU-145 cell line of NCI 60 tumor cell line panel. Type of assay: functional. The conditions noted are these: Homo sapiens.
Assay [18] concerns A498. Put plainly: Tested for cytostatic activity against Renal A-498 cell line of NCI 60 tumor cell line panel. Type of assay: functional. The following applies: Homo sapiens.
The test system of assay [19] is EKVX. The assay can be described thus: Tested for cytostatic activity against non small cell lung(NSCL) EKVX cell line of NCI 60 tumor cell line panel. Type of assay: functional. The conditions noted are these: Homo sapiens.
Assay [20] has as its system SK-MEL-2. The assay can be described thus: Tested for cytostatic activity against Melanoma SK-MEL2 cell line of NCI 60 tumor cell line panel. Type of assay: functional. The following applies: Homo sapiens.
Assay [21] relates to OVCAR-3. The assay can be described thus: Tested for cytostatic activity against Ovarian OVCAR-3 cell line of NCI 60 tumor cell line panel. Type of assay: functional. The conditions noted are these: Homo sapiens.
The subject of assay [22] is Hs-578T. Put plainly: Tested for cytostatic activity against Breast Hs 578.T cell line of NCI 60 tumor cell line panel. Type of assay: functional. The following applies: Homo sapiens.
Assay [23] has as its system MOLT-4. The assay can be described thus: Tested for cytostatic activity against Leukemia MOLT-4 cell line of NCI 60 tumor cell line panel. Type of assay: functional. The following applies: Homo sapiens.
Assay [24] concerns HCC 2998. Put plainly: Tested for cytostatic activity against colon HCC2998 cell line of NCI 60 tumor cell line panel. Type of assay: functional. The conditions noted are these: Homo sapiens.
Assay [25] concerns L1210. The assay can be described thus: Effect in the G2/M phase of L1210 leukemia cell with a significant percentage of cells having 8N DNA content at 1 uM. Type of assay: functional, Mus musculus.
Assay [26] deals with L1210. The assay can be described thus: Effect in the G2/M phase of L1210 leukemia cell with a significant percentage of cells having 8N DNA content at 25 uM. Type of assay: functional, Mus musculus.
Assay [27] concerns L1210. The assay can be described thus: Effect in the G2/M phase of L1210 leukemia cell with a significant percentage of cells having 8N DNA content at 10 uM. Type of assay: functional, Mus musculus.
Assay [28] is described as follows: Inhibition of tubulin polymerization. Type of assay: functional.

The structures appear in SMILES notation.

One may read the IC50 as the midpoint of a concentration-inhibition curve. Higher therefore signals weaker potency in that assay. A word on the GI50: it is the concentration at which growth is held to half of that of the control. High values mean lower sensitivity of the cells, low ones greater sensitivity of the cells.

In assay [1], `COc1cc(-c2csc3c2-n2cccc2C3=O)cc(OC)c1OC` had an IC50 of 36.4 µM.

Compound `O=C1c2scc(-c3cccc(O)c3)c2-n2cccc21` showed an IC50 in assay [1] of 29 µM.

Regarding `COc1ccccc1-c1csc2c1-n1cccc1C2=O`, in [2], the Effect is given as 75%. In addition, the IC50 in assay [1] was determined as 18.9 µM.

In [3], `O=C1c2scc(-c3ccc(O)c(O)c3)c2-n2cccc21` displayed an Effect of 86%. In addition, in assay [1], the IC50 is 0.28 µM.

The compound `Cc1csc2c1-n1cccc1C2=O` showed an IC50 in [1] of over 100 µM.

`O=C1c2scc(-c3ccccc3O)c2-n2cccc21` gave an Effect in assay [4] of 72%. The compound further registered an IC50 in assay [1] of 3.7 µM.

Turning to `COc1ccc(-c2csc3c2-n2cccc2C3=O)cc1O`, the IC50 in [5] amounted to 0.015 µM; in [6], 0.036 µM; in [7] it was 0.023 µM; in assay [8], 0.018 µM; in assay [9], 0.043 µM; in assay [10], 0.021 µM. The IC50 was 0.041 µM in [11]; 0.015 µM in assay [1]; 2.9 µM in [12]; 0.031 µM in assay [13]; 0.038 µM in assay [14]; 0.015 µM in [15]. The Effect in assay [3] was found to be 80%.

For the compound `O=C1c2scc(-c3ccc(Cl)cc3)c2-n2cccc21`, the GI50 in assay [16] is over 100 µM; in [17] it was over 100 µM; in [18], 1 µM; in assay [19], 2.51 µM; in [20], over 100 µM; in [21], over 100 µM. In addition, the results for the GI50 in assay [22], in assay [23] and in [24] were 2 µM, 79.4 µM and over 100 µM, respectively.

`CCCOc1ccc(-c2csc3c2-n2cccc2C3=O)cc1` gave an IC50 in assay [1] of 28.1 µM. This counts as double-digit micromolar.

In turn, `CCOc1ccc(-c2csc3c2-n2cccc2C3=O)cc1` yielded an IC50 in [1] of 0.43 µM. In addition, the Effect in assay [25] was found to be 88%.

In [1], `O=C1c2sccc2-n2cccc21` returned an IC50 of over 100 µM.

Regarding `COc1ccc(-c2csc3c2-n2cccc2C3=O)cc1OC`, the Effect in assay [26] was 86%. In [1], this compound displayed an IC50 of 11.7 µM.

On to `O=C1c2scc(-c3ccccc3)c2-n2cccc21`, for which the GI50 was 20 µM in assay [16]; 25.1 µM in assay [17]; 1.58 µM in assay [18]; 5.01 µM in assay [19]; 12.6 µM in assay [20]; 15.8 µM in assay [21]. The GI50 in [22] is 5.01 µM; in assay [23], 12.6 µM; in assay [24] it was 20 µM. The compound also came in with an IC50 in assay [1] of 26.7 µM.

With `O=C1c2scc(-c3ccc(F)cc3)c2-n2cccc21`, the GI50 in assay [16] is 25.1 µM; in assay [17], 79.4 µM; in assay [18] it was 1.58 µM; in assay [19] it was 25.1 µM; in [20], 31.6 µM; in assay [21], 50.1 µM. For the same compound, the GI50 was 20 µM in assay [22], 25.1 µM in assay [23] and 25.1 µM in assay [24].

`COc1cc(-c2csc3c2-n2cccc2C3=O)ccc1O` returned an Effect in assay [26] of 86%. Also, 8 µM corresponded to half-maximal inhibition in [1] (IC50).

`O=C1c2scc(-c3ccc4c(c3)OCO4)c2-n2cccc21`: the IC50 in assay [1] came out at 4.2 µM. The Effect in [27] is given as 88%.

`CCCCOc1ccc(-c2csc3c2-n2cccc2C3=O)cc1` came in with an IC50 in assay [1] of 29.6 µM.

For the compound `COc1ccc(-c2csc3c2-n2cccc2C3=O)cc1`, the GI50 is 0.0398 µM in assay [16]; 0.158 µM in assay [17]; 0.631 µM in [18]; 0.794 µM in [19]; 0.398 µM in [20]; 0.0398 µM in assay [21]. For the same compound, the values for the GI50 in [22], in assay [23] and in assay [24] were 0.0501 µM, 0.0398 µM and 0.316 µM, respectively. Besides, the Effect in [3] was determined as 83%. In assay [1], this compound registered an IC50 of 0.19 µM.

For the compound `COc1cccc(-c2csc3c2-n2cccc2C3=O)c1`, the Effect in assay [26] is 94%. In [1], this compound had an IC50 of 5.2 µM.

On to `O=C1c2scc(-c3ccc(O)cc3)c2-n2cccc21`, for which inhibition in [1] was half-maximal at 30.1 µM (IC50).

In assay [28], `COc1cc([C@@H]2c3cc4c(cc3C[C@H]3COC(=O)[C@@H]32)OCO4)cc(OC)c1OC` [DESOXYPODOPHYLLOTOXIN] gave an IC50 of 2.4 µM.

Values taken from ChEMBL document CHEMBL1133918, “Design, synthesis and antiproliferative activity of tripentones: a new series of antitubulin agents” (Bioorg Med Chem Lett, 2001).
